Measurements taken from patent publication US20130281544A1, “HEPATOPROTECTANT ACTIVITY OF GARCINOL” (priority 2010, published 2013).

Test system: carbon tetrachloride induced liver damage in rats
Assay: Bilirubin and serum enzymes ALT, AST, ALP in carbon tetrachloride induced liver damage
Format: in vivo, Male Wistar Rats
Details: CCl4; for ALP percent change / ALT percent change / AST percent change / Bilirubin percent change / ALP / ALT / AST / Bilirubin: serum; for ALP / ALT / AST / Bilirubin: Mean ± SE
Protocol: Doses of Garcinol (GC) used for the study: 1.25, 2.5, 5, 10 mg/kg p.o.
Standard drug: Silymarin (50 mg/kg) p.o.
Liver injury was induced by administration of carbon tetrachloride (CCl4) mixed with liquid paraffin (5 fold dilution). Animals were given single dose of CCl4 at 1 ml/kg, p.o. followed by the administration of garcinol (Table 2). [(i) Bramanti G, Murmann W, Pierini P and Comporti M (1978). Effect of cicloxilic acid on CCl4-induced liver injury. Drug Research 28: 1112-1217. (ii) B Singh, A K Saxena, B K Chandan, K K Anand (1998). Hepatoprotective activity of Verbenalin on experimental liver damage in rodents. Fitoterapia LXIX 2: 135-140. (iii) B. K. Chandan, A. K. Sharma, K. K. Anand Boerhaavia difiusa: A study of its hepatoprotective activity. Journal of Ethnopharmacology, Volume 31, Issue 3, March 1991, Pages 299-307].
Blood was collected from the retro-orbital plexus of experimental animals and no anti-coagulant was added. Blood was made to stand at room temperature for 1 hour. It was then centrifuged and clear serum was separated. The serum was then stored for analysis. Reference: (Magari et al., 2004).
(ASPARTATE AMINOTRANSFERASE and ALANINE AMINOTRANSFERASE), Reference: Ritman S, Frankel S, (1957). A colorimeteric method for the determination of serum glutamic oxaloacetic and glutamic pyruvic transaminases. American Journal of Clinical Pathology; 28: 56-63.
0.2 ml of serum, collected from test and control samples, was mixed with 1.0 ml of buffer solution and incubated for 60 min at 37° C. in a water bath. After the addition of 1.0 ml of chromogen solution, the samples were kept at room temperature for 20 minutes for the reaction to proceed and 10 ml NaOH was added. The optical density was red at 546 nm after 5 min. To the blank, serum was added after the addition of chromogen solution.
(ALKALINE PHOSPHATASE), Reference: Klaus Walter and Schutt C. (1974). Acid and alkaline phosphatase in serum. In: Methods of Enzymatic Analysis. Eds. Hans Ulrich Bergmeyer, Verlag ChemieWeinheim, Academic press, Inc. New York, 2nd Edition, Vol. 2, pp. 855-64.
Alkaline phosphatase activity measurement is based on the ability of the enzyme to hydrolyze p-nitrophenol phosphate under alkaline conditions. The cleaved product p-nitrophenol is yellow in alkaline solution and is measured at 400-420 nm (Klaus and Schutt, 1974). 2.0 ml of buffered substrate was taken in the tubes ‘Test’ ‘Control’ and ‘Blank’ followed by addition of serum and distilled water (0.1 ml) in ‘Test’ and ‘Blank’ respectively and incubated in a water bath for 30 minutes at 25° C. After incubation sodium hydroxide was added (0.25 N, 2 ml) to all the tubes, which was followed by serum (0.1 ml) to the tubes marked ‘Control’. The yellow colour formed was measured spectrophotometrically against blank at 410 nm.
[BILIRUBIN (BRBN)], Reference: Malloy H T and Evelyn K A (1937). The determination of bilirubin with photoelectric colorimeter. Journal of Biological Chemistry 119: 481-490.
Serum bilirubin was estimated by the method of Malloy and Evelyn (1937). In the two sets of test tubes marked ‘Test’ and ‘Control’, serum (0.2 ml) and distilled water (1.8 ml) were added. To the tubes marked ‘Test’ and ‘Standard’ diazo reagent (0.5 ml) was added. To the test tubes marked ‘Control’ and ‘Blank’ diazo blank (0.5 ml) was added. Finally methanol (2.5 ml) was added into each test tube. The tubes were mixed and allowed to stand for 30 minutes in dark. The tubes were read after 10 minutes at 540 nm.

## C=C(C)[C@@H](CC=C(C)C)C[C@@]12C[C@@H](CC=C(C)C)C(C)(C)[C@@](CC=C(C)C)(C(=O)C(C(=O)c3ccc(O)c(O)c3)=C1O)C2=O [Garcinol]
1.25 mg/kg p.o.
  Average Protection: 12.63%
  ALP percent change: (10.79) %
  ALT percent change: (12.84) %
  AST percent change: (14.95) %
  Bilirubin percent change: (11.96) %
  ALP: 78.49 ± 6.58 μmol/min/lt
  ALT: 1272.50 ± 109.19 μmol/min/lt
  AST: 746.81 ± 36.93 μmol/min/lt
  Bilirubin: 1.03 ± 0.04 mg %
2.50 mg/kg p.o.
  Average Protection: 24.99%
  ALP percent change: (20.08) %
  ALT percent change: (29.65) %
  AST percent change: (26.32) %
  Bilirubin percent change: (23.93) %
  ALP: 70.32 ± 3.89 μmol/min/lt
  ALT: 1027.07 ± 68.26 μmol/min/lt
  AST: 646.90 ± 50.53 μmol/min/lt
  Bilirubin: 0.89 ± 0.05 mg %
5.00 mg/kg p.o.
  Average Protection: 38.07%
  ALP percent change: (32.73) %
  ALT percent change: (43.24) %
  AST percent change: (42.98) %
  Bilirubin percent change: (33.33) %
  ALP: 59.19 ± 4.45 μmol/min/lt
  ALT: 828.59 ± 46.56 μmol/min/lt
  AST: 500.66 ± 49.22 μmol/min/lt
  Bilirubin: 0.78 ± 0.04 mg %
10.00 mg/kg p.o.
  Average Protection: 36.87%
  ALP percent change: (32.15) %
  ALT percent change: (38.94) %
  AST percent change: (40.50) %
  Bilirubin percent change: (35.89) %
  ALP: 59.70 ± 3.69 μmol/min/lt
  ALT: 891.36 ± 45.72 μmol/min/lt
  AST: 522.43 ± 57.50 μmol/min/lt
  Bilirubin: 0.75 ± 0.04 mg %
